Test results from patent US20060193895A1, “Additive for food and beverage, pharmaceutical composition, GLUT4 translocator, and method for translocating GLUT4” (Use-Techno Corporation, priority 2005, published 2006).

Columns and labels:
Format in all cases: in vivo
[1] = system: KK-Ay mice; assay: Blood sugar level in KK-Ay mouse with administration of corosolic acid; details: oral administration
Method: KK-Ay mice (CLEA JAPAN, INC.) which are the model animals for Type II diabetes were employed for test animals. These KK-Ay mice aged 6 to 10 weeks, having 300 mg/dL of blood sugar level. Corosolic acid which was extracted from Banaba leaves and purified was forcefully administrated to these KK-Ay mice using an injection syringe and an oral sound for mouse. Blood samples were collected at 2, 4 and 7 hours after the administration using the orbital vein blood sampling method, and the blood sugar levels were determined by the glucose oxidase method. Blood sugar levels were measured on four KK-Ay mice. The measured values were used to calculate an average, which was evaluated by the Student's t-test. […] FIG. 1 describes the blood sugar level data as average value± standard error. The p-value of 0.05 or below in the Student's t-test was rated to be significant (the significance is shown with * mark in the Figure: the same is applied hereinafter).

[2] = system: KK-Ay mice; assay: Serum insulin value in KK-Ay mouse with administration of corosolic acid; details: after 4 hours from the administration, vs group without corosolic acid
Method: On the KK-Ay mouse groups with or without corosolic acid administrated in “Blood sugar level in KK-Ay mouse by administration of corosolic acid” described above, the serum insulin values were measured after 4 hours from the administration. The serum insulin values were measured by the enzyme 2-antibody method. The measured data were rated by the Student's t-test to determine whether or not they had significant differences according to the same criterion as above.

[3] = system: glucose transporter type 4 (GLUT4); assay: Effect of corosolic acid on GLUT4 in mouse skeletal muscle (western blotting of PM and LDM fractions); details: KK-Ay mice, after 4 hours from the administration
Method: The intake of sugar into cells is conducted by a carrier protein in the transporting system on cell membrane, called glucose transporter (GLUT). Muscle has glucose transporter type 1 (GLUT1) and glucose transporter type 4 (GLUT4). […] This change in location within a cell is called GLUT4 translocation. It is speculated that significant increase of glucose in muscle and fat tissues is mainly due to the translocation of GLUT4. In view of this point, the effect of corosolic acid on GLUT4 was studied. First, the low density microsome (LDM) fraction and the plasma membrane (PM) fraction were prepared using the sucrose concentration gradient in accordance with the method of Klip et al. (FEBS Lett., 224, 224-230 (1987), Biochem. Biophys. Res. Commum., 172, 728-736 (1990)). On the KK-Ay mouse groups with or without corosolic acid administrated, the relative quantities of GLUT4 in the PM fraction and the LDM fraction were determined after 4 hours from the administration using the western blotting analysis.

[4] = system: ddY mice; assay: Blood sugar level of ddY mouse by administration of corosolic acid; details: ddY normal mice, oral administration, 2, 4, and 7 hours after the administration
Method: KK-Ay mice (CLEA JAPAN, INC.) which are the model animals for Type II diabetes were employed for test animals. These KK-Ay mice aged 6 to 10 weeks, having 300 mg/dL of blood sugar level. Corosolic acid which was extracted from Banaba leaves and purified was forcefully administrated to these KK-Ay mice using an injection syringe and an oral sound for mouse. Blood samples were collected at 2, 4 and 7 hours after the administration using the orbital vein blood sampling method, and the blood sugar levels were determined by the glucose oxidase method. Blood sugar levels were measured on four KK-Ay mice. The measured values were used to calculate an average, which was evaluated by the Student's t-test. […] FIG. 1 describes the blood sugar level data as average value± standard error. The p-value of 0.05 or below in the Student's t-test was rated to be significant (the significance is shown with * mark in the Figure: the same is applied hereinafter). Blood sugar level was determined by the same procedure as described in the above “Blood sugar level in KK-Ay mouse by administration of corosolic acid”, except that the ddY mice which are the normal mice (Japan SLC, Inc.) were employed instead of the KK-Ay mice which are the model animals for Type II diabetes.

## C[C@H]1[C@H](C)CC[C@]2(C(=O)O)CC[C@]3(C)C(=CC[C@@H]4[C@@]5(C)C[C@@H](O)[C@H](O)C(C)(C)[C@@H]5CC[C@]43C)[C@H]12 [corosolic acid]
[1]; after 4 hours from the administration
  blood sugar level: about 280 mg/dL
[1]; during 4 hours after the administration, vs control, Student's t-test
  change in blood sugar level: significantly decreases
[2]
  serum insulin value: no significant difference
[3]
  relative quantity of GLUT4 in the LDM fraction: decreased the GLUT4 of low density microsome
  relative quantity of GLUT4 in the PM fraction: increased it in the plasma membrane fraction
[4]
  change in blood sugar level: No significant difference
